How the values were obtained:
Assay in all cases: biochemical
SIK1 = molecular target: T1, SIK1 (Homo sapiens, UniProt P57059); settings: 33P radioactive SIK kinase assay, AMARA peptide, 10 μM ATP; read-out: SIK1 IC50
T1 construct: purchased Carna Biosciences 02-131
Outline: (§1)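 Radiometric assay: SIK1, SIK2 or SIK3 phosphorylates AMARA peptide using unlabelled plus [^33P]-γ-ATP, reaction started by ATP addition. Stopped with 150 mM phosphoric acid, filter-harvested and washed; incorporated ^33P counted by scintillation. Controls: 1% DMSO and 10 μM staurosporine final.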

SIK2 = molecular target: T2, SIK2 (Homo sapiens, UniProt Q9H0K1); settings: 33P radioactive SIK kinase assay, AMARA peptide, 10 μM ATP
T2 construct: purchased ThermoFisher Scientific PV4792
T2 sequence (Q9H0K1 whole entry): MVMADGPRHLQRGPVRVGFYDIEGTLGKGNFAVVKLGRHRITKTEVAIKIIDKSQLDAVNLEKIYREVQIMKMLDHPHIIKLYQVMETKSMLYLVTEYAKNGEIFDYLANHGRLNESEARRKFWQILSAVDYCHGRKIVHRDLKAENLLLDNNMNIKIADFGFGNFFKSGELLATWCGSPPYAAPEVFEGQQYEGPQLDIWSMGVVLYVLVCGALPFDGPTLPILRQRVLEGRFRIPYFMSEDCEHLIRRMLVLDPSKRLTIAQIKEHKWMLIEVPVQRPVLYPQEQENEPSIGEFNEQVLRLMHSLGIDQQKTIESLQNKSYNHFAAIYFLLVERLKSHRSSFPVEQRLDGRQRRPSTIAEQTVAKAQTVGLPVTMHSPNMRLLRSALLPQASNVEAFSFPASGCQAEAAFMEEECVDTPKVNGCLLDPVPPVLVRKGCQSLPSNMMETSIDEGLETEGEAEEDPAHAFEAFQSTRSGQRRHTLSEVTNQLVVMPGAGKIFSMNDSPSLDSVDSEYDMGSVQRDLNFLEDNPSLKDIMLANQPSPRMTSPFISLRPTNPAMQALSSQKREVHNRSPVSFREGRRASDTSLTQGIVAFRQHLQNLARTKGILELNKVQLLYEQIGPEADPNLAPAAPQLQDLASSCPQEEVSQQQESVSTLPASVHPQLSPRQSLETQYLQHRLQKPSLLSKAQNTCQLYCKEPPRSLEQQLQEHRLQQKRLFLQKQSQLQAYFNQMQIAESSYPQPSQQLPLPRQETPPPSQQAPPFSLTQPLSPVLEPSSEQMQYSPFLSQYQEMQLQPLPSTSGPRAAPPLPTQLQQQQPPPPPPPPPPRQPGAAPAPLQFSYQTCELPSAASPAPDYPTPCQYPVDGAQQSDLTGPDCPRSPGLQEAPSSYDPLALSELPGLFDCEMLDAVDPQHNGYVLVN
Outline: as §1

SIK3 = molecular target: T3, SIK3 (Homo sapiens, UniProt Q9Y2K2)
T3 construct: purchased SignalChem S12-11G-100
T3 sequence (Q9Y2K2 whole entry): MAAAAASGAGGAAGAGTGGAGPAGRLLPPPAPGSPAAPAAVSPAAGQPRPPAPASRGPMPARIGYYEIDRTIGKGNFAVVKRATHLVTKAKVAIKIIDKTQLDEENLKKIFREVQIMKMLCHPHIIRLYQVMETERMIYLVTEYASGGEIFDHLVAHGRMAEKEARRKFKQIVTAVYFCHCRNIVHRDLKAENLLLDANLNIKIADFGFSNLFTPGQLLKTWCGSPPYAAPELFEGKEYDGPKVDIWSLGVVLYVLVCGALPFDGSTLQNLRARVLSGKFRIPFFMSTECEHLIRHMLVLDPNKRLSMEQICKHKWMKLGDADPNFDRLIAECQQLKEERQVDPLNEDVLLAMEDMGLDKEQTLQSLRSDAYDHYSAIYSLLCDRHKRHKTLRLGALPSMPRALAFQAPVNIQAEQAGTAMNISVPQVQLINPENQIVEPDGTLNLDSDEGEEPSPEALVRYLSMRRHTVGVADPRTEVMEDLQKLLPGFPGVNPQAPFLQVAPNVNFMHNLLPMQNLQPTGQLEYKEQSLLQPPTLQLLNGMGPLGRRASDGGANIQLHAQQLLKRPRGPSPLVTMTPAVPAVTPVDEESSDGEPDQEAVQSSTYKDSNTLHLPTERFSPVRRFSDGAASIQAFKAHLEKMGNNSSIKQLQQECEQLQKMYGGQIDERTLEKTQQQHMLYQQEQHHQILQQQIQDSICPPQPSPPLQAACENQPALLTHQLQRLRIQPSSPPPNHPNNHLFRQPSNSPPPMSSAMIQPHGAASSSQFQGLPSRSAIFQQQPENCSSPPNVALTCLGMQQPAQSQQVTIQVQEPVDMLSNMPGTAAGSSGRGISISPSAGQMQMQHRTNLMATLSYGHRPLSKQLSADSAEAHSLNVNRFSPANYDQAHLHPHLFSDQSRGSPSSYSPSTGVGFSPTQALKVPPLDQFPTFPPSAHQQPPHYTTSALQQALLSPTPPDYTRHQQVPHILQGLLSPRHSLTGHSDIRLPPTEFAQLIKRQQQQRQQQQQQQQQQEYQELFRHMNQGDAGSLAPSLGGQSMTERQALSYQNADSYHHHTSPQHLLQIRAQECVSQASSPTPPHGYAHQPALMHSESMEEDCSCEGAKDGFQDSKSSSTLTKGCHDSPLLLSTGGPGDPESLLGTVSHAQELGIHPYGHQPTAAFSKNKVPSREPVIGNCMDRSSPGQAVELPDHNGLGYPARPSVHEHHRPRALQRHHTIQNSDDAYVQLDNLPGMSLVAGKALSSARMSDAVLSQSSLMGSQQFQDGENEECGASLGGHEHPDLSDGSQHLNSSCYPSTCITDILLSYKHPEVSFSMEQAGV
Outline: as §1

T1 sequence (P57059 whole entry): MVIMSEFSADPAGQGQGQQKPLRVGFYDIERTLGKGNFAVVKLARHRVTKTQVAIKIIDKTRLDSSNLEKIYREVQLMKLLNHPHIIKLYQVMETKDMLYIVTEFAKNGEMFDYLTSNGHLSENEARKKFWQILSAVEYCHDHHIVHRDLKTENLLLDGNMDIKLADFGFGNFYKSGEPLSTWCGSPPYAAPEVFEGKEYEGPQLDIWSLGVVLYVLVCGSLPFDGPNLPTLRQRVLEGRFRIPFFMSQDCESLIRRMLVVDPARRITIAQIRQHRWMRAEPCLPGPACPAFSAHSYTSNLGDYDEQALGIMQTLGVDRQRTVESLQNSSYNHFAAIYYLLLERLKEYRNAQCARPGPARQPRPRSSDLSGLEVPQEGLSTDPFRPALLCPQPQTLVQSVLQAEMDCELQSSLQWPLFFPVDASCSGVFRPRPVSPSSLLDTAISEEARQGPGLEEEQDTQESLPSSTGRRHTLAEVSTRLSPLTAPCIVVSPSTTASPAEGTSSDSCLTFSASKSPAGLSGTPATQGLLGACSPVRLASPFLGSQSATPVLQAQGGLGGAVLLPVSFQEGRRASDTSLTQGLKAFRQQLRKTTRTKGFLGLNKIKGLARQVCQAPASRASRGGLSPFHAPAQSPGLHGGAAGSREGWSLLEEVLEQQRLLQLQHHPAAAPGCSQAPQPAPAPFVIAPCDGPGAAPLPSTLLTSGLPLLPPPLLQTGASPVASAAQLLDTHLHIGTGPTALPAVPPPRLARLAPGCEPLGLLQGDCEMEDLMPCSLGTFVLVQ

Structure (SMILES)	IC50 (SIK1)	IC50 (SIK2)	IC50 (SIK3)
COc1cc(-n2cnc3cc(-c4cnn(C)c4)ccc32)cc(OC)c1C(=O)N1CC(N2CCOCC2)C1 [compound 188, [2,6-dimethoxy-4-[5-(1-methylpyrazol-4-yl)benzimidazol-1-yl]phenyl]-(3-morpholinoazetidin-1-yl)methanone]	> 500 nM	> 500 nM	> 500 nM
COc1cc(-n2cnc3cc(-c4cnn(C)c4)ccc32)cc(OC)c1C(=O)N1C(C)CC1(C)C (stereo not drawn) [compound 189, [2,6-dimethoxy-4-[5-(1-methylpyrazol-4-yl)benzimidazol-1-yl]phenyl]-(2,2,4-trimethylazetidin-1-yl)methanone]	> 500 nM	> 500 nM	> 500 nM
COc1cc(-n2cnc3cc(-c4cnn(C)c4)ccc32)cc(OC)c1C(=O)N1CC(OC)C1 [compound 190, [2,6-dimethoxy-4-[5-(1-methylpyrazol-4-yl)benzimidazol-1-yl]phenyl]-(3-methoxyazetidin-1-yl)methanone]	10 to 100 nM	10 to 100 nM	100 to 500 nM
COc1cc(-n2cnc3cc(-c4cnn(C)c4)ccc32)cc(OC)c1C(=O)N1CC(C2CCOCC2)C1 [compound 191, [2,6-dimethoxy-4-[5-(1-methylpyrazol-4-yl)benzimidazol-1-yl]phenyl]-(3-tetrahydropyran-4-ylazetidin-1-yl)methanone]	100 to 500 nM	100 to 500 nM	100 to 500 nM
COc1cc(-n2cnc3cc(-c4cnn(C)c4)ccc32)cc(OC)c1C(=O)N1CCC1CO (stereo not drawn) [compound 193, [2,6-dimethoxy-4-[5-(1-methylpyrazol-4-yl)benzimidazol-1-yl]phenyl]-[2-(hydroxymethyl)azetidin-1-yl]methanone]	> 500 nM	> 500 nM	> 500 nM
COc1cc(-n2cnc3cc(-c4cnn(C)c4)ccc32)cc(OC)c1C(=O)N1CC2(COC2)C1 [compound 194]	100 to 500 nM	10 to 100 nM	100 to 500 nM
COc1cc(-n2cnc3cc(-c4cnn(C)c4)ccc32)cc(OC)c1C(=O)N1CC2(C1)CS(=O)(=O)C2 [compound 195, [2,6-dimethoxy-4-[5-(1-methylpyrazol-4-yl)benzimidazol-1-yl]phenyl]-(2,2-dioxo-2λ^6-thia-6-azaspiro[3.3]heptan-6-yl)methanone]	100 to 500 nM	100 to 500 nM	100 to 500 nM
COc1cc(-n2cnc3cc(-c4cnn(C)c4)ccc32)cc(OC)c1C(=O)N1CCC(c2ccccc2)C1 (stereo not drawn) [compound 196, [2,6-dimethoxy-4-[5-(1-methylpyrazol-4-yl)benzimidazol-1-yl]phenyl]-(3-phenylpyrrolidin-1-yl)methanone]	> 500 nM	> 500 nM	> 500 nM
COc1cc(-n2cnc3cc(-c4cnn(C)c4)ccc32)cc(OC)c1C(=O)N1CCC(F)CC1 [compound 197, [2,6-dimetlioxy-4-[5-(1-methylpyrazol-4-yl)benzimidazol-1-yl]phenyl]-(4-fluoro-1-piperidyl)methanone]	> 500 nM	> 500 nM	> 500 nM
COc1cc(-n2cnc3cc(-c4cnn(C)c4)ccc32)cc(OC)c1C(=O)N1CCC(OC(F)(F)F)CC1 [compound 198, [2,6-dimethoxy-4-[5-(1-methylpyrazol-4-yl)benzimidazol-1-yl]phenyl]-[4-(trifluoromethoxy)-1-piperidyl]methanone]	100 to 500 nM	> 500 nM	100 to 500 nM
COc1cc(-n2cnc3cc(-c4cnn(C)c4)ccc32)cc(OC(F)F)c1C(=O)NC(C)(C)C [compound 199, N-tert-butyl-2-(difluoromethoxy)-6-methoxy-4-[5-(1-methylpyrazol-4-yl)benzimidazol-1-yl]benzamide]	> 500 nM	> 500 nM	> 500 nM
COc1cc(-c2cnc3cc(-c4cnn(C)c4)ccn23)cc(OC)c1C(=O)N1CCC(F)(F)C1 [compound 211, (3,3-difluoropyrrolidin-1-yl)-[2,6-dimethoxy-4-[7-(1-methylpyrazol-4-yl)imidazo[1,2-a]pyridin-3-yl]phenyl]methanone]	10 to 100 nM	10 to 100 nM	10 to 100 nM
COc1cc(-c2cnc3cc(-c4cnn(C)c4)ccn23)cc(OC)c1C(=O)N1CCC(F)(F)CC1 [compound 212, (4,4-difluoro-1-piperidyl)-[2,6-dimethoxy-4-[7-(1-methylpyrazol-4-yl)imidazo[1,2-a]pyridin-3-yl]phenyl]methanone]	100 to 500 nM	10 to 100 nM	100 to 500 nM
COc1cc(-n2cnc3cc(-c4cnn(C)c4)ccc32)cc(OC)c1C(=O)N1CC(C)(O)C1 [compound 217, [2,6-dimethoxy-4-[5-(1-methylpyrazol-4-yl)benzimidazol-1-yl]phenyl]-(3-hydroxy-3-methyl-azetidin-1-yl)methanone]	10 to 100 nM	10 to 100 nM	10 to 100 nM
CCC1(O)CN(C(=O)c2c(OC)cc(-n3cnc4cc(-c5cnn(C)c5)ccc43)cc2OC)C1 [compound 218, [2,6-dimethoxy-4-[5-(1-methylpyrazol-4-yl)benzimidazol-1-yl]phenyl]-(3-ethyl-3-hydroxy-azetidin-1-yl)methanone]	10 to 100 nM	10 to 100 nM	100 to 500 nM
COc1cc(-n2cnc3cc(-c4cnn(C)c4)ccc32)cc(OC)c1C(=O)N1CC(O)(C2CC2)C1 [compound 220, (3-cyclopropyl-3-hydroxy-azetidin-1-yl)-[2,6-dimethoxy-4-[5-(1-methylpyrazol-4-yl)benzimidazol-1-yl]phenyl]methanone]	10 to 100 nM	10 to 100 nM	10 to 100 nM
COC(=O)C1CN(C(=O)c2c(OC)cc(-c3cnc4cc(-c5cnn(C)c5)ccn34)cc2OC)C1 [compound 226, methyl 1-[2,6-dimethoxy-4-[7-(1-methylpyrazol-4-yl)imidazo[1,2-a]pyridin-3-yl]benzoyl)azetidine-3-carboxylate]	10 to 100 nM	10 to 100 nM	10 to 100 nM

More lines, now with the values ahead:

IC50 (SIK1)	IC50 (SIK2)	IC50 (SIK3)	Structure (SMILES)
10 to 100 nM	10 to 100 nM	10 to 100 nM	COc1cc(-c2cnc3cc(-c4cnn(C)c4)ccn23)cc(OC)c1C(=O)NC(C(C)C)C(F)(F)F (stereo not drawn) [compound 200]
100 to 500 nM	100 to 500 nM	100 to 500 nM	COc1cc(-c2cnc3cc(-c4cc(C)no4)ccn23)cc(OC)c1C(=O)N[C@@H](C)C(F)(F)F [compound 224, 2,6-dimethoxy-4-[7-(3-methylisoxazol-5-yl)imidazo[1,2-a]pyridin-3-yl]-N-[(1S)-2,2,2-trifluoro-1-methyl-ethyl]benzamide]
10 to 100 nM	10 to 100 nM	0.01 to 10 nM	COc1cncc(-c2ccn3c(-c4cc(OC)c(C(=O)NCC(F)(F)F)c(OC)c4)cnc3c2)c1 [compound 245, 2,6-dimethoxy-4-[7-(5-methoxy-3-pyridyl)imidazo[1,2-a]pyridin-3-yl]-N-(2,2,2-trifluoroethyl)benzamide]
10 to 100 nM	10 to 100 nM	0.01 to 10 nM	COc1cc(-c2cnc3cc(-c4cnc(N)nc4)ccn23)cc(OC)c1C(=O)NCC(F)(F)F [compound 246, 4-[7-(2-aminopyrimidin-5-yl)imidazo[1,2-a]pyridin-3-yl]-2,6-dimethoxy-N-(2,2,2-trifluoroethyl)benzamide]
10 to 100 nM	10 to 100 nM	0.01 to 10 nM	COc1cc(-c2cnc3cc(-c4ccnnc4)ccn23)cc(OC)c1C(=O)NCC(F)(F)F [compound 247, 2,6-dimethoxy-4-(7-pyridazin-4-ylimidazo[1,2-a]pyridin-3-yl)-N-(2,2,2-trifluoroethyl)benzamide]
100 to 500 nM	10 to 100 nM	10 to 100 nM	COc1cc(-c2cnc3cc(-c4cn(C)nc4C(F)(F)F)ccn23)cc(OC)c1C(=O)NCC(F)(F)F [compound 249, 2,6-dimethoxy-4-[7-[1-methyl-3-(trifluoromethyl)pyrazol-4-yl]imidazo[1,2-a]pyridin-3-yl]-N-(2,2,2-trifluoroethyl)benzamide]
100 to 500 nM	10 to 100 nM	10 to 100 nM	COc1cc(-c2cnc3cc(-c4cccnc4OC)ccn23)cc(OC)c1C(=O)NCC(F)(F)F [compound 250, 2,6-dimethoxy-4-[7-(2-methoxy-3-pyridyl)imidazo[1,2-a]pyridin-3-yl]-N-(2,2,2-trifluoroethyl)benzamide]
> 500 nM	> 500 nM	100 to 500 nM	COc1cc(-c2cnc3cc(-c4cncnc4C(C)C)ccn23)cc(OC)c1C(=O)NCC(F)(F)F [compound 253, 4-[7-(4-isopropylpyrimidin-5-yl)imidazo[1,2-a]pyridin-3-yl]-2,6-dimethoxy-N-(2,2,2-trifluoroethyl)benzamide]

Reference: patent US12065443B2, “Compounds and pharmaceutical compositions thereof for the treatment of diseases” (priority 2017, dated 2024)
